In brackets after ≈: the same amount, converted by molar mass.
Tests used:
[1] = Intrinsic solubility of drug; type: physicochemical
Text: (§1) J. Pharm 302(2005), 18-28 and S. I. F. Badaway et al, Int. J. Pharmaceut.128(1996), 45-54.

[2] = Solubility in Example 7 formulation (hydrogel in 50:50 wt % water/ethanol); type: physicochemical; conditions: 50:50 wt % water/ethanol with polyvinylalcohol and butylidene polymer; for solubility: aqueous with cosolvent or surfactant or cyclodextrin
Text: As an alternative to the general procedure described in Example 2 and the procedures described in other examples, a solvent may comprise a 50:50 wt % water/ethanol solution. The polyvinylalcohol and butylidene polymer may be included in such a solvent and the mixture may then be acidified to a pH of not less than 2.5 to cause polyvinylalcohol and butylidene polymer to react in an acid catalysed reaction. A drug of low solubility may then be added to the mixture as described in the other examples.
as §1

[3] = Solubility in 10% w/v hydroxypropyl cyclodextrin solution; type: physicochemical; conditions: for solubility: 10% w/v hydroxypropyl cyclodextrin solution, aqueous with cosolvent or surfactant or cyclodextrin, read-out: Solubility in 10% w/v Hydroxypropyl Cyclodextrin soln.
Text: as §1

[4] = Time for solid drug to dissolve in acidified hydrogel mixture at ambient temperature with stirring; type: physicochemical; conditions: 0.2 wt % drug in 0.5 wt % hydrogel, pH about 2.5, ambient temperature
Procedure: A 0.5 wt % formulation of a hydrogel was prepared comprising Poval 220 polyvinylalcohol and the butylidene polymer of Example 1 in the weight ratio 10:1. The pH of the mixture was lowered to about 2.5 by addition of hydrochloric acid and, with the pH at the lowered level, doxorubicin, a solid red powder, was added at ambient temperature with stirring to give a level of 0.2 wt % doxorubicin in the mixture. […] After the formulation has been prepared, the pH may be raised to about 7 by addition of alkali to neutralise it.
A 2 wt % formulation of a hydrogel was prepared comprising KH-20 polyvinylalcohol and the butylidene polymer of Example 1 in a weight ratio 10:1. The pH of the mixture was lowered to about 2.5, by addition of hydrochloric acid. Then, doxycycline, in a solid form, was added at ambient temperature with stirring to give a level of 0.5 wt % of doxycycline in the mixture. The doxycycline appeared to dissolve in the water within about 15 minutes to give a clear pale yellow mixture which appeared to comprise a solution but more likely comprises complexed doxycycline.

[5] = aqueous formulation, Poval 220 polyvinylalcohol/butylidene polymer hydrogel (Example 3 process)
physchem = conditions: pH 2.5, aqueous with cosolvent or surfactant or cyclodextrin, thermodynamic from solid

Structure (SMILES)	Intrinsic Solubility [1] [µg/mL]	solubility [2] [µg/mL]	solubility [3] [µg/mL]	solubility [1] [µg/mL]	also measured
Clc1ccccc1C(c1ccccc1)(c1ccccc1)n1ccnc1 [Clotrimazole]	70	11800 (≈ 34.2 mM)	1210 (≈ 3.51 mM)	–	–
Clc1ccc(COC(Cn2ccnc2)c2ccc(Cl)cc2Cl)cc1 (stereo not drawn) [Econazole]	–	12600 (≈ 33 mM)	4990 (≈ 13.1 mM)	370 (≈ 0.969 mM)	–
Clc1ccc(COC(Cn2ccnc2)c2ccc(Cl)cc2Cl)c(Cl)c1 (stereo not drawn) [Miconazole]	–	4700 (≈ 11.3 mM)	2460 (≈ 5.91 mM)	90 (≈ 0.216 mM)	–
CC(C)c1cccc(C(C)C)c1O [Propafol]	160	–	–	–	Example 7 formulation (solubility) [2]: 34800 µg/mL; Solubility in 10% w/v Hydroxypropyl Cyclodextrin soln. [3]: 7690 µg/mL (≈ 43.1 mM)
COc1cccc2c1C(=O)c1c(O)c3c(c(O)c1C2=O)C[C@@](O)(C(=O)CO)C[C@@H]3O[C@H]1C[C@H](N)[C@H](O)[C@H](C)O1 [doxorubicin]	–	–	–	–	appeared to dissolve in the water (time) [4]: substantially instantaneously; saturation solubility [5]: 11.5 % w/v; solubility (physchem): 115000 µg/mL (≈ 212 mM)
